Laboratory results: patent publication US5618943A, “Acetylenes disubstituted with a 5 OXO substituted tetrahydronaphthyl group and with an aryl or heteroaryl group having retinoid-like biological activity” (Allergan, priority 1994, dated 1997)

test system: ornithine decarboxylase (ODC); experiment: not given; details: literature statement; cited from earlier work

SMILES	inhibition of TPA induction of ODC activity (in words)
CC1=C(/C=C/C(C)=C/C=C/C(C)=C/C(=O)O)C(C)(C)CCC1 [Retinoic acid]	inhibits this induction of ODC activity

test system: ornithine decarboxylase (ODC); experiment: ODC assay: inhibition of TPA induction of ornithine decarboxylase (retinoic acid-like activity); assay type: biochemical; details: concentration of the test compound which causes 80% inhibition in the ODC assay; TPA-induced
Text: The retinoic acid-like activity of these compounds is confirmed through the classic measure of retinoic acid activity involving the effects of retinoic acid on ornithine decarboxylase. The original work on the correlation between retinoic acid and decrease in cell proliferation was done by Verma & Boutwell, Cancer Research, 1977, 37,2196-2201. That reference discloses that ornithine decarboxylase (ODC) activity increased precedent to polyamine biosynthesis. It has been established elsewhere that increases in polyamine synthesis can be correlated or associated with cellular proliferation. Thus, if ODC activity could be inhibited, cell hyperproliferation could be modulated. Although all cases for ODC activity increases are unknown, it is known that 12-0-tetradecanoylphorbol-13-acetate (TPA) induces ODC activity. […] Activity of exemplary compounds of the present invention in the abovedescribed ODC assay is disclosed in Table 2 which provides the IC80 concentration for the respective exemplary compound. ("IC80 " is that concentration of the test compound which causes 80% inhibition in the ODC assay. By analogy, "IC60, for example, is that concentration of the test compound which causes 60% inhibition in the ODC assay.)

IC80 conc [nmols]	SMILES
1.60	CCOC(=O)c1ccc(C#Cc2ccc3c(c2)C(C)(C)CCC3=O)cc1 [Compound 1, Ethyl 4-[(5,6,7,8-tetrahydro-8,8-dimethyl-5-oxonaphth-2-yl)ethynyl]benzoate]
0.85	CCOC(=O)c1ccc(C#Cc2ccc3c(c2)C(=O)CCC3(C)C)cc1 [Compound 2, Ethyl 4-[(5,6,7,8-tetrahydro-8,8-dimethyl-5-oxonaphth-3-yl)ethynyl]benzoate]
113	CCOC(=O)c1ccc(C#Cc2ccc3c(c2)C(C)(C)CCC3=O)nc1 [Compound 5, Ethyl 6-[(5,6,7,8-tetrahydro-8,8-dimethyl-5-oxonaphth-2-yl)ethynyl]nicotinate]
1.60	CC1(C)CCC(=O)c2ccc(C#Cc3ccc(C(=O)O)cc3)cc21 [Compound 7, 4-[(5,6,7,8-tetrahydro-8,8-dimethyl-5-oxonaphth-2-yl)ethynyl]benzoic acid]
1.37	CC1(C)CCC(=O)c2cc(C#Cc3ccc(C(=O)O)cc3)ccc21 [Compound 8, 4-[(5,6,7,8-tetrahydro-8,8-dimethyl-5-oxonaphth-3yl)ethynyl]benzoic acid]
26.12	CCOC(=O)c1ccc(C#Cc2ccc3c(c2)C2(CCC3(C)C)SCCCS2)cc1 [Compound 58, Ethyl. 4-[[5,6,7,8-tetrahydro-8,8-dimethyl-5-(2-(1,3-dithiane))naphth-3-yl]ethynyl]benzoate]
23.00	CCOC(=O)c1ccc(C#Cc2ccc3c(c2)C(C)(C)CCC32SCCCS2)cc1 [Compound 59, Ethyl 4-[[5,6,7,8-tetrahydro-8,8-dimethyl-5-(2-(1,3-dithiane))napth-2-yl]ethynyl]benzoate]
2.60	CC1(C)CCC2(SCCCS2)c2cc(C#Cc3ccc(C(=O)O)cc3)ccc21 [Compound 60, 4-[[5,6,7,8-tetrahydro-8,8-dimethyl-5-(2-(1,3-dithiane))naphth-3-yl]ethynyl]benzoic acid]
